Test results from patent US11077092B2, “Methods of treating diabetes by administering a glucagon receptor antagonist in combination with a cholesterol absorption inhibitor” (Merck Sharp & Dohme Corp., priority 2012, dated 2021).
Values belong to the compound of their own block, whether it stands above or below them.

Key:
hGCGR mice [1] = assay: Sub-chronic treatment of hGCGR mice with GRA (Example 1): plasma total cholesterol, phytosterols, lathosterol, cholesterol synthesis; format: in vivo; settings: 30 mpk QD for 5 days, vs vehicle
Protocol: Male hGCGR mice (Transgenic Research, 8:295-302, 1999) at ˜12 wks of age maintained on chow diet were treated with vehicle and GRA Compounds A, B, and C at 30 mpk QD for 5 days (n=8). On Day 1, mice were administered the compounds followed by glucagon-induced glucose tolerance test. On Day 5, mice were fasted at 7:30 am. After dosing at ˜9:00 am, the blood glucose was measured at 2-h post dose with a glucometer; see FIG. 1. At 6-h post dose, the tail blood was collected for PK measurement. Mice were euthanized with CO2, and blood was collected by cardiac puncture. The liver was snap frozen in liquid nitrogen with a freezing clamp and saved in −80° C. Plasma was isolated by centrifuging the blood at 8000 rpm for 5 min. The plasma level of total cholesterol was measured by biochemical assay (Wako Chemicals Inc.). The plasma level of lathosterol and phytosterol was measured by LC/MS. To determine cholesterol synthesis. D2O was administered i.p. at 20 ml/kg on 24 h prior to takedown of the mice. The level of D2 in plasma water and plasma cholesterol was assayed by GC/MS for cholesterol synthesis. Asterisks denote statistical significance between treatment and vehicle groups.

hGCGR mice [2] = assay: Combination treatment of GRAs with ezetimibe in hGCGR mice (Example 9); format: in vivo; settings: for plasma total cholesterol: GRA alone 30 mpk QD for 9 days
Source text: FIGS. 15A-B illustrate total plasma cholesterol (FIG. 15A) and cholesterol absorption (FIG. 15B) upon sub-chronic treatment of hGCGR mice with vehicle. GRA Compound A (30 mpk), ezetimibe (10 mpk), or Compound A (30 mpk)+ezetimibe (10 mpk) QD for 9 days.
FIGS. 16A-B illustrate total plasma cholesterol (FIG. 16A) and cholesterol absorption (FIG. 16B) upon sub-chronic treatment of hGCGR mice with vehicle, GRA Compound D (30 mpk), Compound E (30 mpk), Compound D (30 mpk)+ezetimibe (10 mpk), or Compound E (30 mpk)+ezetimibe (10 mpk) QD for 9 days.
A similar protocol was deployed in this part of work except ezetimibe was added to the combination treatment groups. Briefly, male hGCGR mice at ˜12 wks of age were treated with vehicle, ezetimibe@10 mpk, Compound A@30 mpk, Compound D@30 mpk, Compound E@30 mpk, Compound A@30 mpk+ezetimibe@10 mpk, Compound D@30 mpk+ezetimibe@10 mpk, Compound E@30 mpk+ezetimibe@10 mpk. Plasma total cholesterol, phytosterol, cholesterol absorption, and cholesterol synthesis were quantified using the same assays as described before.

hGCGR mice [3] = assay: Dual tracer study for cholesterol absorption in hGCGR mice (Example 4); format: in vivo; settings: 30 mpk QD for 9 days
Protocol: Male hGCGR mice at ˜12 wks of age maintained on chow or high cholesterol diet (n=8 group) were treated with vehicle and GRA Compound A@30 mpk QD for 9 days. Twenty four-hour feces before treatment and 3 days after treated were collected for fecal cholesterol characterization. On Day 4, mice were dosed with vehicle (0.5% MC, BID) or Compound A followed by administration with D6-cholesterol@15 mpk through p.o. and 13C-cholesterol@15 mpk through i.v. Blood was collected at 4, 24, 48, 72, and 96 h post injection by tail bleeding. For cholesterol synthesis, D2O was administered i.p. at 20 ml/kg on Day 7. On day 8, tail blood was collected for PK and mice were taken down for blood and liver collection. Plasma was isolated from blood by centrifuge at 8000 rpm for 5 min and submitted for GC/MS assay for cholesterol synthesis and absorption. Feces were sent to Taconic for fecal cholesterol assay. Asterisks denote statistical significance between treatment and vehicle groups. * p<0.05, **p<0.01, and ***p<0.001 by ANOVA.

hGCGR mice [4] = assay: hGCGR mice, 5 day treatment with GRA Compound A and positive control LXR agonist (Example 2): plasma total cholesterol and LDL-c; format: in vivo; settings: comparing with vehicle
Source text: FIG. 6 illustrates plasma levels of total cholesterol and LDL-c in hGCGR mice following a 5 day treatment with GRA Compound A and positive control LXR agonist.
It is important to note that lipoprotein profiles of mouse and human are fundamentally different. In mice, the major lipoproteins are in HDL while in humans the main lipoproteins are in LDL-c. In preclinical studies, hGCGR mice were used as the model for in vivo study. Plasma level of total cholesterol was used as a more reliable parameter to indicate the effect of GRAS on cholesterol metabolism.

type 2 diabetic patients = format: in vivo, human
Protocol: In phase 2b trial studies of Compound D, the average plasma levels of LDL-c in the placebo, Compound D@20, 40, 60, 80 mg, and metformin@2 g groups were 112.3, 117.7, 117.3, 110.0, 111.9, and 113.8 mg/dl at baseline, respectively. Plasma levels of LDL-c of the majority of the patients were within the normal range (≤130 mg/dl) according to the guideline of the American Heart Association and Mayo Clinic. After 12-week treatment, the average plasma levels of LDL-c were 105.4, 117.7, 123.2, 119.7, 126.6, and 111.1 mg/dl, respectively.
The following table illustrates the plasma levels of LDL-c in the patients in the phase 2b trial of Compound D. Type 2 diabetic patients with fasting glucose level of 140 to 240 mg/dl were recruited to the phase 2b trial of Compound D. After a 6-wk washout of any previous anti-hyperglycemic agents, patients were treated with placebo, Compound D QD@20, 40, 60, and 80 mg, and metformin BID@1 g for 12 wks. Values in bold are the percentage of patients on Day-1 and wk 12 less than or equal to the designated cutoff values at 130, 110, 100, and 70 mg/dl.
The baseline plasma level of LDL-c (Day -1) was plotted with the % change of LDL-c at week 12 from baseline.
In the 46 patients on Compound D@60 mg in the phase 2b trial, 14 patients were on statins during the 12-wk trial. […] LDL-c (despite the presence of the statin); see FIG. 17.

hGCGR mice [5] = assay: Sub-chronic study of Compound D in hGCGR mice: glucagon-induced glucose tolerance test and plasma phytosterols (Example 5); format: in vivo; settings: 3 and 10 mpk, Day 1
Protocol: Male wild type and hGCGR mice on chow diet were treated with vehicle or GRA Compound D@3 and 10 mpk. On Day 1, mice were administered vehicle or Compound D followed by a glucagon-induced glucose tolerance test. On Day 5, mice were fasted at 7:30 am. After dosing at ˜9:00 am, blood glucose was measured at 2-h post dose with a glucometer. At 6-h post dose, tail blood was collected for a PK measurement. Mice were euthanized with CO2, and blood was collected by cardiac puncture. The liver was snap frozen in liquid nitrogen with a freezing clamp and saved in −80° C.
Plasma was isolated by centrifuging the blood at 8000 rpm for 5 min. Plasma level of total cholesterol was measured by an enzymatic colorimetric method (Wako Chemicals Inc.). Plasma levels of lathosterol and Phytosterol was measured by LC/MS.

[6] = ezetimibe 10 mpk combined with Compound A, D or E 30 mpk, QD for 9 days

- plasma total cholesterol (hGCGR mice [1]): induced
- plasma total cholesterol (hGCGR mice [3]): significantly increased
- plasma level of LDL-c (hGCGR mice [4]): significantly increased
- plasma level of total cholesterol (hGCGR mice [4]): significantly increased
SMILES: COc1ccc2cc(-c3cc(-c4cc(C(F)(F)F)ccc4F)nn3[C@@H](C)c3ccc(C(=O)NCCC(=O)O)cc3)ccc2c1 [Compound A]
- plasma total cholesterol (hGCGR mice [2]): significantly increased or tended to increase

- plasma total cholesterol (hGCGR mice [1]): induced
SMILES: Cc1cc(OC(CCC(F)(F)F)c2ccc(C(=O)NCCC(=O)O)cc2)cc(C)c1-c1ccc(C(C)(C)C)cc1 (stereo not shown) [Compound B, 3-{4-[1-(4′-tert-butyl-2,6-dimethyl-biphenyl-4-yloxy)-4,4,4-trifluoro-butyl]-benzoylamino}-propionic acid]

- plasma total cholesterol (hGCGR mice [1]): induced
SMILES: Cc1cc(OC(CCC(C)(C)C)c2ccc(C(=O)NCCC(=O)O)cc2)cc(C)c1-c1ccc(C(F)(F)F)cc1 (stereo not shown) [Compound C, 3-{4-[1-(2,6-Dimethyl-4′-trifluoromethyl-biphenyl-4-yloxy)-4,4-dimethyl-pentyl]-benzoylamino}-propionic acid]

SMILES: COc1ccc2cc(-c3cc(-c4cc(Cl)cc(Cl)c4)nn3[C@@H](C)c3ccc(C(=O)NCCC(=O)O)cc3)ccc2c1 [Compound D, N-(4-{(1S)-1-[3-(3,5-dichlorophenyl)-5-(6-methoxy-2-naphthyl)-1H-pyrazol-1-yl]ethyl}benzoyl)-β-alanine]
- blood glucose levels (type 2 diabetic patients; 60 mg, 12-wk trial, in most patients): substantial reduction
- plasma total cholesterol (hGCGR mice [2]): significantly increased or tended to increase
- glucagon-induced glucose excursion (hGCGR mice [5]): suppressed

SMILES: CCC[C@H](c1ccc(C(=O)NCCC(=O)O)cc1)[C@H](c1ccc(Cl)cc1)c1c[nH]c2c(F)cc(C)cc12 [Compound E, N-(4-{(1S)-1-[(R)-(4-chlorophenyl)(7-fluoro-5-methyl-1H-indol-3-yl)methyl]butyl}benzoyl)-β-alanine]
- plasma total cholesterol (hGCGR mice [2]): significantly increased or tended to increase

- plasma level of LDL-c (hGCGR mice [4]): significantly increased
- plasma level of total cholesterol (hGCGR mice [4]): significantly increased
SMILES: O=S(=O)(c1ccccc1)N(CC(F)(F)F)c1ccc(C(O)(C(F)(F)F)C(F)(F)F)cc1 [Compound T, reference compound]

- average plasma level of LDL-c (type 2 diabetic patients; human, in vivo): 113.8 mg/dL
- increase of LDL-c after 12-week treatment (type 2 diabetic patients; human, in vivo): 2.2%
- percentage of patients with plasma LDL-c less than or equal to 110 mg/dl (type 2 diabetic patients; human, in vivo): 54.2 percentage
- percentage of patients with plasma LDL-c less than or equal to 130 mg/dl (type 2 diabetic patients; human, in vivo): 70.8 percentage
SMILES: CN(C)C(=N)N=C(N)N [Metformin, metformin, reference compound]

SMILES: O=C1[C@H](CC[C@H](O)c2ccc(F)cc2)[C@@H](c2ccc(O)cc2)N1c1ccc(F)cc1 [ezetimibe, reference compound]
- induction of cholesterol absorption caused by GRAs (hGCGR mice [2]; [6]): prevented the induction
- induction of total cholesterol caused by GRAs (hGCGR mice [2]; [6]): prevented the induction
